{"source": "patent US10829798B2", "about": "“DNA-linked enzyme-coupled assays” (THE REGENTS OF THE UNIVERSITY OF CALIFORNIA, priority 2014, dated 2020)", "molecular_target": "T1, GT05 (UGT72B1 (Q9M156)) (Arabidopsis thaliana, UniProt Q9M156)", "T1 construct": "made in house; host or cells: PURExpress In Vitro Protein Synthesis Kit (NEB E6800L), cell-free transcription/translation, linear DNA amplified from pET15b construct", "T1 sequence (Q9M156 1-480)": "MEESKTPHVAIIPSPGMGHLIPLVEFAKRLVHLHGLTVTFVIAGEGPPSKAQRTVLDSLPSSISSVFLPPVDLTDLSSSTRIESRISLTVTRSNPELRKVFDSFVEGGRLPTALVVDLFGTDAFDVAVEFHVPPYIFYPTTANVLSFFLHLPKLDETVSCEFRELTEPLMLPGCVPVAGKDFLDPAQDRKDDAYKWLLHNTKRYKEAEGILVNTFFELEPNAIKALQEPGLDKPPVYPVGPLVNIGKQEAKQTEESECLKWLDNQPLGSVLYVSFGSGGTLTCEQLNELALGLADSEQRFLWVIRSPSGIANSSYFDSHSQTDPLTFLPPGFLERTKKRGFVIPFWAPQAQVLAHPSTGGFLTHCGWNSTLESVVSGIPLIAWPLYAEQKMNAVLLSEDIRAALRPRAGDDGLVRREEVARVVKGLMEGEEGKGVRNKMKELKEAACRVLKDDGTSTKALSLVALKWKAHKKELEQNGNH", "assay": "qPCR DLEnCA, cell-free transcription/translation-derived GT05", "type": "biochemical", "settings": "GT05 DNA 5 nM, chemical 1 mM, UDP-Glc 2 μM, probe 0.2 nM; low recovery = substrate glucosylated", "protocol": "FIG. 4A-FIG. 4D. qPCR DLEnCA and substrate specificity studies. A. Chemicals used as substrates in subsequent assays: (i) known substrates of OleD; (ii) flavone library; (iii) known substrates of GT05 (UGT72B1 (Q9M156)) and GT06 (UGT89B1 (AT1 G73880)). B. DNA encoding OleD (5 nM) was incubated in a cell-free transcription/translation system for 3 hours at 37° C., followed by the addition of chemical (1 mM) and UDP-Glc (2 μM). After a subsequent incubation of 3 hours, TbGT and probe (0.2 nM) were added. After probe purification and MfeI digestion, probe integrity was identified using qPCR. Percent recovery of probe is reported (n=8; error bars=standard error). C. DNA encoding OleD (5 nM) was incubated for 3 hours at 37° C. in a cell-free transcription/translation system, followed by the addition of flavone (1 mM) and UDP-Glc (2 μM). After a subsequent incubation of 3 hours, TbGT and probe (0.2 nM) were added. After probe purification and MfeI addition, probe integrity was identified using qPCR. Percent recovery of probe is reported (n=8; error bars=standard error). D. DNA encoding OleD, GT05, or GT06 (5 nM) were incubated for 3 hours at 37° C. in a cell-free transcription/translation system, followed by the addition of chemical (1 mM) and UDP-Glc (2 μM). After a subsequent incubation of 3 hours, TbGT and probe (0.2 nM) were added. After probe purification and MfeI digestion, probe integrity was identified using qPCR. Percent recovery of probe is reported as a heat map (n=8) (specific recovery figures and percent error can be found in FIG. 16). *=p<0.05 vs. no chemical control.\nPCR tubes were used for most reactions. All incubations were performed at 37° C. Assays were initiated upon the addition of linear DNA (5 nM final concentration) to 4 μl PURExpress Solution A and 3 μl PURExpress Solution B. Samples were incubated at 37° C. for 3 hours prior to addition of UDP-Glucose and chemical (1 mM final concentration) in DMSO. Samples were incubated for an additional 3 hours prior to addition of 1 unit T4 Phage β-glucosyltransferase containing 0.2 nM probe. […]"}
{"smiles": "O=c1c(O)c(-c2ccc(O)cc2)oc2cc(O)cc(O)c12", "note": "[I, kaempferol]", "values": [{"measurement": "recovery of probe", "value": 32, "unit": "%"}]}
